In experiment [1] the target is T1, MC1 receptor (Mus musculus, UniProt Q01727).
T1 construct: B16 mouse melanoma cells were used, which endogenously express the (mouse) MC1 receptor; endogenous in cells; host or cells: B16 mouse melanoma cells
Description: Affinity for the MC1-receptor, displacement of I125-NDP-MSH. As to conditions: B16 mouse melanoma cells, I125-NDP-MSH ligand; read-out: Affinity for MC-receptors Ki MC1. The format is binding. The protocol:
Test 1. Affinity for the MC1-Receptor
The binding assay was carried out essentially as described by Lunec et al Melanoma Res 1992; 2; 5-12 using I^125α-NDP-MSH as ligand.
(§1) Essentially, the affinity of the compounds to the different receptors were determined using either insect cells (Sf9) or COS cells, which were transfected with recombinant human MC3, MC4 or MC5 receptors. For the determination of the affinity to the MC1 receptor, B16 mouse melanoma cells were used, which endogenously express the (mouse) MC1 receptor.
(§2) The compounds were tested at different concentrations for their ability to displace I^125-labelled NDP-MSH from the respective receptor. Incubation was performed in 96-well plates using 50,000 cells/well (Sf9 or COS cells) up to 200,000 cells/well (mouse melanoma cells).
(§3) The test compound or standard (NDP-MSH) was added in an appropriate concentration (generally between 10^−4 M and 10^−12 M) together with labelled tracer (approx. 50,000 cpm/well) and incubation was performed for 2 hours (at room temperature for Sf 9 cells and at +37° C. for COS cells and mouse melanoma cells).
(§4) After the incubation, the cells were washed twice to get rid of excess tracer and compound, and the cells were lysed with 0.1M NaOH. The lysate was counted in a gamma-counter, binding was calculated and the affinity then determined.

Experiment [2] deals with T2, human MC3 receptor (Homo sapiens, UniProt P41968).
T2 construct: expressed in transfected cells; host or cells: Sf9 insect cells or COS cells
Description: Affinity for the MC3-receptor, displacement of I125-NDP-MSH. The format is binding. As to conditions: Sf9 or COS cells transfected with human MC3, I125-NDP-MSH ligand; for Ki: read-out: Affinity for MC-receptors Ki MC3. The procedure: (§5) Test 2. Affinity for the MC3-Receptors, the MC4-Receptors and the MC5-Receptors
(§6) The binding assays were carried out essentially as described by Szardenings et al., J. Biol. Chem. 1997; 272; 27943-27948 and Schiöth et al., FEBS Lett. 1997; 410; 223-228 using I^125-NDP-α-MSH as ligand.
as §1, §2, §3, §4

The target in experiment [3] is T3, human MC4 receptor (Homo sapiens, UniProt P32245).
T3 construct: expressed in transfected cells; host or cells: Sf9 insect cells or COS cells
Description: Affinity for the MC4-receptor, displacement of I125-NDP-MSH. Type of experiment: binding. Conditions: Sf9 or COS cells transfected with human MC4, I125-NDP-MSH ligand; read-out: Affinity for MC-receptors Ki MC4. The procedure: as §5, §6, §1, §2, §3, §4

Experiment [4] has as its target T4, human MC5 receptor (Homo sapiens, UniProt P33032).
T4 construct: expressed in transfected cells; host or cells: Sf9 insect cells or COS cells
The experiment in a line: Affinity for the MC5-receptor, displacement of I125-NDP-MSH. Conditions: Sf9 or COS cells transfected with human MC5, I125-NDP-MSH ligand; read-out: Affinity for MC-receptors Ki MC5. The format is binding. The procedure: as §5, §6, §1, §2, §3, §4

For experiment [5], the target named is T1, MC1 receptor. The experiment in a line: cAMP assay, MC1 receptor (mouse melanoma B16 cells). Type of experiment: cell-based. As to conditions: 20 minutes at +37° C. The procedure: (§7) Test 3. cAMP Assay p The stimulation of cAMP was carried out essentially as described by Schiöth et al., Br. J. Pharmacol. 1998; 124; 75-82.
(§8) Essentially, the effects of the compounds were tested […] for their ability to stimulate the production of cAMP. The cells used were the same ones that were used for the binding assays (see above), i.e. for the MC1 receptor mouse melanoma B16 cells were used and for the MC3, MC4 and MC5 receptors, Sf9 or COS cells, transfected with the respective human receptors.
(§9) Cyclic AMP was stimulated by the addition of the compounds at different concentrations in the presence of a phosphodiesterase inhibitor, during a period of 20 minutes at +37° C. cAMP was extracted with PCA, neutralised with KOH and the mixture was then centrifuged.
(§10) The concentration of cAMP was determined using a binding assay comprising binding protein (from bovine adrenals). Tritiated cAMP, used as tracer, and extracts (from above) in different dilutions were incubated at +4° C. for 120-150 minutes. The cAMP in the unknown samples displaced the labelled cAMP from binding to the binding protein. The binding protein-cAMP/tracer complex was harvested using a filter technique and the filters were counted using a beta-counter. The concentrations of cAMP in the unknown extracts were calculated using a standard curve of known concentrations.
On the technique in general: Cyclic AMP is a second messenger, typically raised through Gs and lowered through Gi signalling.

In experiment [6] the target is T3, human MC4 receptor. Description: cAMP assay, MC4 receptor (transfected Sf9 or COS cells). Type of experiment: cell-based. As to conditions: 20 minutes at +37° C. The procedure:
as §7, §8, §9, §10

Experiment [7] has as its target T4, human MC5 receptor. The experiment in a line: cAMP assay, MC5 receptor (transfected Sf9 or COS cells). The format is cell-based. As to conditions: 20 minutes at +37° C. The protocol:
as §7, §8, §9, §10

In experiment [8] the target is T2, human MC3 receptor. Description: cAMP assay, MC3 receptor (transfected Sf9 or COS cells). Conditions: 20 minutes at +37° C. Type of experiment: cell-based. The procedure: as §7, §8, §9, §10
The subject of another experiment is Female BALB/c mice. The experiment in a line: Anti-inflammatory effects: total number of white blood cells in DNFB model. Type of experiment: in vivo, mouse. As to conditions: i.p., 0.05-0.75 mg/kg, blood collected 24 hours after last challenge. The protocol: Anti-Inflammatory Effects
Female BALB/c mice (weight 20-22 g) were sensitized by treatment of the shaved abdomen with 30 μl of 0.5% 2,4-dinitrofluorobenzene (DNFB). After 4 days they were challenged with 10 μl of 0.3% DNFB to the paw. The unchallenged mice paws served as a control. Twenty-four hours after the last challenge, the difference in paws weight were determined as an indicator of the inflammation (paw oedema).
Mice were treated as the control but were additionally injected i.p. with various doses (0.05, 0.15 or 0.25, 0.375, 0.5 and 0.75 mg/kg) of each compounds two hours before sensitization (day 0) and the same dose was administered repeatedly after sensitization during four consecutive days. The paw edema inhibition as described above. Groups containing at least 10 mice each were used for all experiments.
Blood analysis was carried out using the QBC® Autoread™ Plus & QBC® Accutube System (Becton Dickinson). In all cases blood samples were collected twenty-four hours after the last challenge.

For experiment [9], the system named is Sprague-Dawley, male rats. The experiment in a line: In vivo effects on food intake, nocturnal protocol, icv. More on the design: species or system rat. An excerpt:
(§11) In Vivo Effects on Food Intake
(§12) Compounds have been tested for their effects on food intake and body weight in rats.
(§13) In order to investigate the agonistic effect, i.e. decrease in food intake, of compounds, the nocturnal protocol was used. Sprague-Dawley, male rats were used, which were cannulated intracerebroventricularly. Stainless steel guide cannulae were placed in the lateral ventricle and fixed in the skull. Animals were acclimatized for a week before the experiments took place. After the experiments were done, the rats were killed and placement of the cannulae were checked.
(§14) Rats were cannulated as described above. They were used without prior starvation, and compounds were administered at 5 pm in a total volume of 5 μl. Doses of Compound 2:4 used were 1, 4 and 10 nmoles. Food intake was measured at 3, 15 and 24 hours after dosing, and body weight was recorded at 24 hours. For comparison, the well known MC4 receptor agonist, Melanotan II (MTII) was used, at a dose of 1 nmole.

The test system of experiment [10] is Sprague-Dawley, male rats. Description: In vivo effects on body weight gain, nocturnal protocol, icv. The arrangement: species or system rat. As to conditions: icv, 1, 4 and 10 nmoles, recorded at 24 hours.
Text: as §11, §12, §13, §14

T3 sequence (P32245 whole entry): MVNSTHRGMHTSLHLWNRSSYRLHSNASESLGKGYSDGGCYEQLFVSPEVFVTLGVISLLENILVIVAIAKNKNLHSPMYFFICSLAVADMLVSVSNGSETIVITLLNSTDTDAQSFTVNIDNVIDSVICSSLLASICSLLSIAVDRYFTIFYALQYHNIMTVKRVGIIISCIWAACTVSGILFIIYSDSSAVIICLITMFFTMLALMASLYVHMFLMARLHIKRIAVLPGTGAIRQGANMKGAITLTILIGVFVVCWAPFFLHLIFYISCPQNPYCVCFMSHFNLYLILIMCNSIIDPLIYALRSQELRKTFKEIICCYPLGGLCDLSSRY
T1 sequence (Q01727 whole entry): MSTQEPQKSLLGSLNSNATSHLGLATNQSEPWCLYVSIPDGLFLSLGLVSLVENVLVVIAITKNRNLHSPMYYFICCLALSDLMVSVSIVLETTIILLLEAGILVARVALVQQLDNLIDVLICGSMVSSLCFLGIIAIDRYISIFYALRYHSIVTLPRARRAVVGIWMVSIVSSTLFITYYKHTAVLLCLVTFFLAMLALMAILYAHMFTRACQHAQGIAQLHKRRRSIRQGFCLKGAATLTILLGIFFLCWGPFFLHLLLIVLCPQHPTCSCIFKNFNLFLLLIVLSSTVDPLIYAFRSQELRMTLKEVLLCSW
T2 sequence (P41968 whole entry): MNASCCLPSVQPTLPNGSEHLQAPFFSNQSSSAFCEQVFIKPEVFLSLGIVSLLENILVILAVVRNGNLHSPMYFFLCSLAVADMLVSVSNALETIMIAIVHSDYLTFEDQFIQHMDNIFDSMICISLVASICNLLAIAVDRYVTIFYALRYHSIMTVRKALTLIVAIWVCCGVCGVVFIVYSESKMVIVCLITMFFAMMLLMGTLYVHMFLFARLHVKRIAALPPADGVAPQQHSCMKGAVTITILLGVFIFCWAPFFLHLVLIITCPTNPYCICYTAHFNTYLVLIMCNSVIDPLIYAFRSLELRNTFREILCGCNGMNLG
T4 sequence (P33032 whole entry): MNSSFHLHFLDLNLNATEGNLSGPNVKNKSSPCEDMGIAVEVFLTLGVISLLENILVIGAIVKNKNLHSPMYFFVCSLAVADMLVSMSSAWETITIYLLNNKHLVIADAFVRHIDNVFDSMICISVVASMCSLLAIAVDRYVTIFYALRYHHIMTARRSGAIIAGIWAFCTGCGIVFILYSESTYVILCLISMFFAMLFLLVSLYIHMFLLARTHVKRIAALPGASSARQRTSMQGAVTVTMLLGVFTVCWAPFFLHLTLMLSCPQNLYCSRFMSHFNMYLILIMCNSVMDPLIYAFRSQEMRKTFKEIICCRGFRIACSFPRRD

With `NCCCNC(=O)C(Cc1c[nH]c2ccccc12)NC(=O)Cc1cccc2ccccc12` (centres unmarked) [1:6, N-(3-Amino-propyl)-3-(1H-indol-3-yl)-2-(2-naphthalen-1-yl-acetylamino)-propionamide], the Ki on MC1 receptor [1] is 12.7 µM; at human MC3 receptor [2], 37.1 µM; on human MC4 receptor [3], 25.2 µM; on human MC5 receptor [4], 30.8 µM. The “Influence on cAMP MC1c” value at MC1 receptor [5] is 375 percentage of the baseline. The “Influence on cAMP MC4c” value at human MC4 receptor [6] is 99 percentage of the baseline. The “Influence on cAMP MC5c” value on human MC5 receptor [7] is reported as 76 percentage of the baseline.
Consider `CCn1c2ccccc2c2cc(NC(=O)C(Cc3c[nH]c4ccccc34)NC(=O)CCCNC(=N)N)ccc21` (centres unmarked) [2:6, N-[1-(9-Ethyl-9H-carbazol-3-ylcarbamoyl)-2-(1H-indol-3-yl)-ethyl]-4-guanidino-butyramide], for which the values for the Ki on MC1 receptor [1], on human MC4 receptor [3] and on human MC5 receptor [4] were 2.7 µM, 20.8 µM and 17.9 µM, respectively. Besides, the “Affinity for MC-receptors Ki MC3” value at human MC3 receptor [2] is listed as “nb”. For the same compound, at MC1 receptor [5], the “Influence on cAMP MC1c” value was 354 percentage of the baseline. For the same compound, the “Influence on cAMP MC4c” value on human MC4 receptor [6] was 61 percentage of the baseline. Besides, the “Influence on cAMP MC5c” value on human MC5 receptor [7] is 117 percentage of the baseline.
Regarding `CCn1c2ccccc2c2cc(NC(=O)C(Cc3c[nH]c4ccccc34)NC(=O)CCN)ccc21` (centres unmarked) [2:14, 2-(3-Amino-propionylamino)-N-(9-ethyl-9H-carbazol-3-yl)-3-(1H-indol-3-yl)-propionamide], the “Influence on cAMP MC1c” value on MC1 receptor [5] is 162 percentage of the baseline. For the same compound, the “Influence on cAMP MC3c” value on human MC3 receptor [8] is 116 percentage of the baseline. For the same compound, on human MC4 receptor [6], the “Influence on cAMP MC4c” value was 237 percentage of the baseline. Besides, the “Influence on cAMP MC5c” value at human MC5 receptor [7] is 164 percentage of the baseline.
With `N=C(N)NCCCCN(Cc1ccccc1)C(=O)C(Cc1c[nH]c2ccccc12)NC(=O)CCCc1ccccc1` (centres unmarked) [Compound 1:15, N-[1-[Benzyl-(4-guanidino-butyl)-carbamoyl]-2-(1H-indol-3-yl)-ethyl]-4-phenyl-butyramide], the inhibition constant Ki turned out to be 1.3 µM at MC1 receptor [1], 23.5 µM at human MC3 receptor [2], 5.6 µM at human MC4 receptor [3] and 35.6 µM on human MC5 receptor [4]. The “white blood cell count” value with Female BALB/c mice is reported as “clearly dose dependent”.
For `N=C(N)NCCCCN(Cc1ccccc1)C(=O)C(Cc1c[nH]c2ccccc12)NC(=O)Cc1ccc2ccccc2c1` (centres unmarked) [Compound 1:17, N-Benzyl-N-(4-guanidino-butyl)-3-(1H-indol-3-yl)-2-(2-naphthalen-2-yl-acetylamino)-propionamide], in that order: 0.6 µM, 35.3 µM, 3.1 µM, 43.7 µM and “clearly dose dependent”.
For the compound `N=C(N)NCCCC(=O)NC(Cc1c[nH]c2ccccc12)C(=O)NCCc1c[nH]c2ccccc12` (centres unmarked) [Compound 2:4, 4-Guanidino-N-{2-(1H-indol-3-yl)-1-[2-(1H-indol-3-yl)-ethylcarbamoyl]-ethyl}-butyramide], the “effects at the highest dose compared with MTII” value in experiment [9] (icv, 10 nmoles versus MTII 1 nmole, food intake and body weight gain) is “in the same range as that observed with MTII”. In addition, the food intake result in [9] (icv, 1, 4 and 10 nmoles, measured at 3, 15 and 24 hours after dosing) is “the intermediate and the highest dose is significantly different from vehicle treated animals”. Moreover, in experiment [10], the body weight gain entry is “dose dependent and significantly different from vehicle treated animals at the highest dose tested”.
Take `CCn1c2ccccc2c2cc(NC(=O)C(Cc3c[nH]c4ccccc34)NC(=O)CCCN)ccc21` (centres unmarked) [Compound 2:7, 4-Amino-N-[1-(9-ethyl-9H-carbazol-3-ylcarbamoyl)-2-(1H-indol-3-yI)-ethyl]-butyramide]: the Ki on MC1 receptor [1] is 2.6 µM; at human MC4 receptor [3], 18.1 µM; on human MC5 receptor [4], 25.1 µM. Moreover, the “Affinity for MC-receptors Ki MC3” value at human MC3 receptor [2] was “nb”. At MC1 receptor [5], the “Influence on cAMP MC1c” value is 315 percentage of the baseline. Also, the “Influence on cAMP MC4c” value on human MC4 receptor [6] is 79 percentage of the baseline. Further, the “Influence on cAMP MC5c” value at human MC5 receptor [7] is given as 154 percentage of the baseline.

In general, Ki refers to the equilibrium dissociation constant of an inhibitor or competing ligand from its target.

These data come from patent publication US20030195212A1, “Novel melanocortin receptor agonists and antagonists” (priority 2000, published 2003).
